Data as given in article PMC8344233, “Anticancer activity and toxicity of new quaternary ammonium geldanamycin derivative salts and their mixtures with potentiators” (Journal of Enzyme Inhibition and Medicinal Chemistry, 2021).
≈ marks a conversion by molar mass, not a printed value.

How the values were obtained:
[1] = tested on: HeLa; experiment: MTT cytotoxicity assay, HeLa (1st panel); type: cell-based, human; conditions: for IC50: Homo sapiens, HeLa, ± SD, MTT, 72 h; for selectivity index SI (HeLa): IC50 normal cell line CCD39Lu/IC50 HeLa
Procedure: (§1) Cell survival was measured as the percentage absorbance compared to the control (nontreated cells). […]
(§2) SI indexes were calculated from equation SI = IC50 normal cell line HDF/IC50 respective cancerous cell line (Table 2). A beneficial SI > 1.0 indicates a compound with efficacy against tumor cell greater than the toxicity against normal cells.
(§3) All experiments were carried out with human breast adenocarcinoma (MDA-MB-231 and MCF-7), hepatocellular carcinoma (HepG2), human cervical adenocarcinoma (HeLa) cancer cell lines, and human normal lung fibroblast (CCD39Lu) cell line. The cell line was purchased from the European Collection of Cells Cultures (ECACC, Salisbury, UK), and cultured in DMEM with phenol red supplemented with 10% (v/v) FBS, 1% (v/v) penicillin/streptomycin, and 1% (v/v) L-glutamine at 37 °C, in a humidified atmosphere containing 5% CO2.
(§4) The tested compounds were dissolved in DMSO to the final concentration 10 mM and stored […]
(§5) The cytotoxic effect of the tested compounds was determined by MTT assay. MDA-MB-231, MCF-7, HepG2, HeLa, and CCD39Lu cells were seeded in 96 wells plates at density 2x10^4 cells/well and incubated overnight under cell culture condition. Next, cells were treated with tested compounds at concentrations of 10 µM; 5 µM; 2.5 µM; 1.2 µM; 0.6 µM; 0.3 µM; 0.15 […]
(§6) µM. Moreover, GDM (for MCF-7) and 8 (for MCF-7 and MDA-MB-231) due to high cytotoxicity, were additionally tested at a lower concentration range of 2.5 µM; 1.2 µM; 0.6 µM; 0.3 µM; 0.15µM; 0.07 µM; 0.03 µM. DMSO was used as a control, and the concentration […]
(§7) Tested compounds were added to cells in the medium without phenol red. Cells were incubated 72 h at 37 °C in a humidified atmosphere containing 5% CO2.
(§8) Then, the medium was aspirated and MTT solution at a concentration of 0.59 mg/mL in cell culture medium was added to each well. Plates were incubated for 1.5 hours at 37 °C, and then plates were centrifuged for 3 minutes. The formazan crystals were dissolved in 200 µl DMSO and plates were agitated on a plate shaker at 300 –500 rpm for 10 minutes. Absorbance at 570 nm was measured using a plate reader (Biotek Instruments, Elx -800). Data were normalized to the mean absorption of control cells. All experiments were performed at least three times. […]

[2] = tested on: CCD39Lu; experiment: MTT cytotoxicity assay, normal lung fibroblasts CCD39Lu; type: cell-based; conditions: Fibroblast, ± SD, healthy human lung fibroblasts, 72 h, read-out: IC50 CCD39Lu (toxicity in normal cells)
Procedure: as §1, §2, §3, §4, §5, §6, §7, §8

[3] = Water solubility SH2O
[4] = tested on: MCF-7; experiment: MTT cytotoxicity assay, MCF-7 (1st panel); type: cell-based, human; conditions: for IC50: Homo sapiens, MCF7, 72 h, ± SD, MTT, 72 h; for selectivity index SI (MCF-7): IC50 normal cell line CCD39Lu/IC50 MCF-7
Procedure: as §1, §2, §3, §4, §5, §6, §7, §8

[5] = tested on: MDA-MB-231; experiment: MTT cytotoxicity assay, MDA-MB-231 (1st panel); type: cell-based, human; conditions: for IC50: Homo sapiens, MDA-MB-231, ± SD, MTT, 72 h; for selectivity index SI (MDA-MB-231): IC50 normal cell line CCD39Lu/IC50 MDA-MB-231
Procedure: as §1, §2, §3, §4, §5, §6, §7, §8

[6] = tested on: HepG2; experiment: MTT cytotoxicity assay, HepG2 (1st panel); type: cell-based, human; conditions: for IC50: Homo sapiens, HepG2, ± SD, MTT, 72 h; for selectivity index SI (HepG2): IC50 normal cell line CCD39Lu/IC50 HepG2
Procedure: as §1, §2, §3, §4, §5, §6, §7, §8

## CO[C@H]1/C=C\C=C(/C)C(=O)NC2=CC(=O)C(NC3CCC(O)CC3)=C(C[C@@H](C)C[C@H](OC)[C@H](O)[C@@H](C)/C=C(\C)[C@@H]1OC(N)=O)C2=O (stereo partly shown) [Compound 4]
[1]
  IC50: > 10 µM
  selectivity index SI (HeLa): > 1
[2]
  IC50: > 10 µM
[3]
  solubility: 40 µg/mL (≈ 62.1 µM)
[4]
  IC50: > 10000 nM
  selectivity index SI (MCF-7): > 1
[5]
  IC50: > 10 µM
  selectivity index SI (MDA-MB-231): > 1
[6]
  IC50: > 10 µM
  selectivity index SI (HepG2): > 1

## CO[C@H]1/C=C\C=C(/C)C(=O)NC2=CC(=O)C(NC3CCN(Cc4ccccc4)CC3)=C(C[C@@H](C)C[C@H](OC)[C@H](O)[C@@H](C)/C=C(\C)[C@@H]1OC(N)=O)C2=O [Compound 5]
[1]
  IC50: 1.56 ± 0.14 µM
  selectivity index SI (HeLa): 9.81
[2]
  IC50: 15.3 ± 0.12 µM
[4]
  IC50: 1840 ± 570 nM
  selectivity index SI (MCF-7): 8.32
[5]
  IC50: 2.28 ± 0.54 µM
  selectivity index SI (MDA-MB-231): 6.71
[6]
  IC50: 1.63 ± 0.49 µM
  selectivity index SI (HepG2): 9.39

## CO[C@H]1/C=C\C=C(/C)C(=O)NC2=CC(=O)C(NC3CCN(C(C)=O)CC3)=C(C[C@@H](C)C[C@H](OC)[C@H](O)[C@@H](C)/C=C(\C)[C@@H]1OC(N)=O)C2=O [Compound 6]
[1]
  IC50: 4.75 ± 0.35 µM
  selectivity index SI (HeLa): > 2.11
[2]
  IC50: > 10 µM
[4]
  IC50: 610 ± 140 nM
  selectivity index SI (MCF-7): > 16.39
[5]
  IC50: 3.16 ± 0.89 µM
  selectivity index SI (MDA-MB-231): > 3.16
[6]
  IC50: 3.38 ± 0.13 µM
  selectivity index SI (HepG2): > 2.96
